The record followed here is patent US20160193216A1 (Nimbus Iris, Inc., priority 2012, published 2016).

The experiment has as its target T1, IRAK4 (Homo sapiens, UniProt Q9NWZ3).
T1 sequence (Q9NWZ3 1-460): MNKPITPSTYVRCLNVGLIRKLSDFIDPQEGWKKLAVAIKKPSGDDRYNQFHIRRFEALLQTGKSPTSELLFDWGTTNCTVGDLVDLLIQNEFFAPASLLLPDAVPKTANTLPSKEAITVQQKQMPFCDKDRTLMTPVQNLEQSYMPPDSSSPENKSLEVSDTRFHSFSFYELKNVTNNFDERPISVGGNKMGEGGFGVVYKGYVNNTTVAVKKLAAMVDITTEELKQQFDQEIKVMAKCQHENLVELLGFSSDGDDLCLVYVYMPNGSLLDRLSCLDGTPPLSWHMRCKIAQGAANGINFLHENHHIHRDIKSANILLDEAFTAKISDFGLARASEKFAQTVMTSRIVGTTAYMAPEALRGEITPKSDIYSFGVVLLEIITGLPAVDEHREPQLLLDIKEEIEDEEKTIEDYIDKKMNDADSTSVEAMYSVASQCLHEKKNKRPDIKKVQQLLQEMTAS
As to the kind of experiment: IRAK-4 activity inhibition assay (Caliper). The experiment is classed as biochemical. The note with it: 37 μM ATP, 3.5 nM IRAK4. On the procedure:
A 1× kinase base buffer was prepared from 50 mM HEPES, pH 7.5 and 0.0015% Brij-35. A stop buffer was prepared from 100 mM HEPES, pH 7.5, 0.015% Brij-35, 0.2% Coating Reagent #3, and 50 mM EDTA.
Test compound was diluted to 50× of the final desired highest inhibitor concentration in reaction by 100% DMSO. 100 μl of this compound dilution was transferred to a well in a 96-well plate.
Test compound was serially diluted by transferring 30 μl to 60 μl of 100% DMSO in the next well and so forth for a total of 10 concentrations. 100 μl of 100% DMSO was added to two empty wells for no compound control and no enzyme control in the same 96-well plate.
A new 96-well plate was marked as intermediate plate. 5 μl of compound serial dilution was transferred from source plate to the corresponding wells of the intermediate plate. 45 μl of 1× kinase base buffer (KB buffer) was added to each well of the intermediate plate. The intermediate plate was placed for 10 min on a shaker.
5 μl of each well was transferred from the 96-well intermediate plate to a 384-well plate in duplicates. […] A2 of the 96-well plate is transferred to A3 and A4 of the 384-well plate, and so on.
IRAK4 and DTT in 1× kinase base buffer was added.
Assay plate already contained 5 μl of compound in 10% DMSO. Added 10 μl of 2.5× enzyme solution to each well of the 384-well assay plate, except no enzyme control wells. […] Added 10 μl of 1× kinase base buffer to no enzyme control wells in the assay plate. Incubated at room temperature for 10 min.
Added 10 μl of 2.5× peptide solution to each well of the 384-well assay plate. […] Incubated at 28° C. for 40 minutes. Added 25 μl of stop buffer to stop reaction. Collected data on Caliper.
Copied conversion % data from Caliper program. Converted conversion % values to percent inhibition values. Percent inhibition=(max−conversion %)/(max−min)*100, where “max” means the conversion % of DMSO control and “min” means the conversion % of no enzyme control.
The compound numbers correspond to the compound numbers in Table 1. […] “NA” stands for “not assayed.”

pIC50: −log10 of the molar value. Structures can show the parent of a compound that is named as a salt.

As for `CS(=O)(=O)N1CCc2sc3ncnc(O[C@H]4CC[C@H](N5CCOCC5)CC4)c3c2C1` [Compound I-187, 12-methanesulfonyl-3-[[4-(morpholin-4-yl)cyclohexyl]oxy]-8-thia-4,6, 12-triazatricyclo[7.4.0.0[2,7]]trideca-1(9),2(7),3,5-tetraene], the pIC50 is > 5.30. For `CN(C)[C@H]1CC[C@H](Oc2ncnc3sc4c(c23)CN(C(=O)CCO)CC4)CC1` [Compound I-195, 1-(3-[[4-(dimethylamino)cyclohexyl]oxy]-8-thia-4,6, 12-triazatricyclo[7.4.0.0[2,7]]trideca-1(9),2,4,6-tetraen-12-yl)-3-hydroxypropan-1-one], the pIC50 was 4.70 to 5.30. In the case of `CC[C@H](C[C@H]1CCc2sc3ncnc(O[C@H]4CC[C@H](N(C)C)CC4)c3c21)OC` [Compound I-117, 4-[[(3R)-3-[(2R)-2-methoxybutyl]-7-thia-9,11-diazatricyclo[6.4.0.0[2,6]]dodeca-1(8),2(6),9,11-tetraen-12-yl]oxy]-N,N-dimethylcyclohexan-1-amine], the pIC50 is > 5.30.

Turning to `CCNC(=O)CC1CCc2sc3ncnc(O[C@H]4CC[C@H](N(C)C)CC4)c3c21` (stereo in doubt) [Compound I-35, 2-[(3S)-12-[[4-(dimethylamino)cyclohexyl]oxy]-7-thia-9,11-diazatricyclo[6.4.0.0[2,6]]dodeca-1(12),2(6),8,10-tetraen-3-yl]-N-ethylacetamide], the pIC50 was > 5.30. In the case of `CC[C@@H](O)C[C@H]1CCc2sc3ncnc(N[C@H]4CC[C@H](N(C)C)CC4)c3c21` [Compound I-52], the pIC50 is > 5.30. As for `CN(C)[C@H]1CC[C@H](Nc2ncnc3sc4c(c23)C(CC(=O)N2CC[C@H](O)C2)CC4)CC1` (stereo partly drawn) [Compound I-15, 2-(4-(((1r,4S)-4-(dimethylamino)cyclohexyl)amino)-6,7-dihydro-5H-cyclopenta[4,5]thieno[2,3-d]pyrimidin-5-yl)-1-((S)-3-hydroxypyrrolidin-1-yl)ethanone], the pIC50 was < 4.30. With `CN(C)[C@H]1CC[C@H](Nc2ncnc3sc4c(c23)C(CO)CC4)CC1` (stereo partly drawn) [Compound I-3], the pIC50 is > 5.30. For the molecule `C=C[C@@H](O)C[C@H]1CCc2sc3ncnc(O[C@H]4CC[C@@](N)(CC)CC4)c3c21` [Compound I-126, (2S)-1-[(3R)-12-[(4-amino-4-ethylcyclohexyl)oxy]-7-thia-9,11-diazatricyclo[6.4.0.0[2,6]]dodeca-1(8),2(6),9,11-tetraen-3-yl]but-3-en-2-ol], the negative-log IC50 (pIC50) is > 5.30. For the molecule `CC[C@@H](C[C@H]1CCc2sc3ncnc(N[C@H]4CC[C@H](N(C)C)CC4)c3c21)OC` [Compound I-148, (1r,4R)-N1-((R)-5-((S)-2-methoxybutyl)-6,7-dihydro-5H-cyclopenta[4,5]thieno[2,3-d]pyrimidin-4-yl)-N4,N4-dimethylcyclohexane-1,4-diamine], the pIC50 was > 5.30. For the molecule `CN(C)[C@H]1CC[C@H](Oc2ncnc3sc4c(c23)[C@@H](CO)CC4)CC1` [Compound I-19, ((R)-4-(((1r,4R)-4-(dimethylamino)cyclohexyl)oxy)-6,7-dihydro-5H-cyclopenta[4,5]thieno[2,3-d]pyrimidin-5-yl)methanol], the pIC50 was > 5.30. On to `CC[C@H](O)C[C@H]1CCc2sc3ncnc(N[C@H]4CC[C@H](N(C)C)CC4)c3c21` [Compound I-54], for which the pIC50 is > 5.30. Regarding `OCC[C@@H]1CCc2sc3ncnc(O[C@H]4CC[C@H](N5CCOCC5)CC4)c3c2C1` [Compound I-145, 2-((R)-4-(((1r,4R)-4-morpholinocyclohexyl)oxy)-5,6,7,8-tetrahydrobenzo[4,5]thieno[2,3-d]pyrimidin-6-yl)ethanol], the pIC50 was > 5.30. `CC[C@@H](C[C@H]1CCc2sc3ncnc(O[C@H]4CC[C@H](N(C)C)CC4)c3c21)OC` [Compound I-119, (1R,4r)-4-(((R)-5-((S)-2-methoxybutyl)-6,7-dihydro-5H-cyclopenta[4,5]thieno[2,3-d]pyrimidin-4-yl)oxy)-N,N-dimethylcyclohexanamine]: the pIC50 was > 5.30. In the case of `CN(C)[C@H]1CC[C@H](Oc2ncnc3sc4c(c23)[C@H](CC(=O)Nc2ccc(F)cn2)CC4)CC1` [Compound I-38, 2-[(3S)-12-[[4-(dimethylamino)cyclohexyl]oxy]-7-thia-9,11-diazatricyclo[6.4.0.0[2,6]]dodeca-1(8),2(6),9,11-tetraen-3-yl]-N-(5-fluoropyridin-2-yl)acetamide], the pIC50 was 4.30 to 4.70. Consider `CCC(O)[C@H]1CCc2sc3ncnc(O[C@H]4CC[C@H](N(C)C)CC4)c3c21` (stereo partly drawn) [Compound I-50, (S)-1-((S)-4-(((1r,4S)-4-(dimethylamino)cyclohexyl)oxy)-6,7-dihydro-5H-cyclopenta[4,5]thieno[2,3-d]pyrimidin-5-yl)propan-1-ol], for which the pIC50 was 4.70 to 5.30. Consider `CN(CC(=O)N1CCCC1)[C@H]1CC[C@H](Nc2ncnc3sc4c(c23)[C@@H](CC(N)=O)CC4)CC1` [Compound I-123, 2-[(3R)-12-[(4-[methyl[2-oxo-2-(pyrrolidin-1-yl)ethyl]amino]cyclohexyl)amino]-7-thia-9,11-diazatricyclo[6.4.0.0[2,6]]dodeca-1(8),2(6),9,11-tetraen-3-yl]acetamide], for which the pIC50 was > 5.30. Molecule `COC(=O)N1Cc2sc3ncnc(O[C@H]4CC[C@H](N5CCOCC5)CC4)c3c2C1` [Compound I-199, methyl 12-[[4-(morpholin-4-yl)cyclohexyl]oxy]-7-thia-4,9, 11-triazatricyclo[6.4.0.0[2,6]]dodeca-1(12),2(6),8, 10-tetraene-4-carboxylate] gave a pIC50 of 4.30 to 4.70. Then `CN(C)[C@H]1CC[C@H](Oc2ncnc3sc4c(c23)[C@@H](COCC(N)=O)CC4)CC1` [Compound I-76, 2-[[(3S)-12-[[4-(dimethylamino)cyclohexyl]oxy]-7-thia-9,11-diazatricyclo[6.4.0.0[2,6]]dodeca-1(8),2(6),9,11-tetraen-3-yl]methoxy]acetamide], with > 5.30; and `CN(C)[C@H]1CC[C@H](Oc2ncnc3sc4c(c23)C[C@@H](CCO)CC4)CC1` [Compound I-111, 2-[(12S)-3-[[4-(dimethylamino)cyclohexyl]oxy]-8-thia-4,6-diazatricyclo[7.4.0.0[2,7]]trideca-1(9),2(7),3,5-tetraen-12-yl]ethan-1-ol formate], with > 5.30; and `CN(C)[C@H]1CC[C@H](Oc2ncnc3sc4c(c23)CN(C(N)=O)CC4)CC1` [Compound I-201, 3-[[4-(dimethylamino)cyclohexyl]oxy]-8-thia-4,6, 12-triazatricyclo[7.4.0.0[2,7]]trideca-1(9),2,4,6-tetraene-12-carboxamide], with > 5.30. `CC[C@H](O)C[C@H]1CCc2sc3ncnc(O[C@H]4CC[C@H](N(C)CC(=O)N5CCCC5)CC4)c3c21` [Compound I-72, 2-(((1R,4r)-4-(((R)-5-((S)-2-hydroxybutyl)-6,7-dihydro-5H-cyclopenta[4,5]thieno[2,3-d]pyrimidin-4-yl)oxy)cyclohexyl)(methyl)amino)-1-(pyrrolidin-1-yl)ethanone]: the pIC50 is > 5.30. In turn, `CN(C)[C@H]1CC[C@H](Nc2ncnc3sc4c(c23)C(C(=O)NCc2ccccc2)CC4)CC1` (stereo partly drawn) [Compound I-24, N-benzyl-12-[[4-(dimethylamino)cyclohexyl]amino]-7-thia-9,11-diazatricyclo[6.4.0.0̂[2,6]]dodeca-1(12),2(6),8,10-tetraene-3-carboxamide] showed a pIC50 of 4.30 to 4.70. For `C=C[C@H](O)C[C@H]1CCc2sc3ncnc(O[C@H]4CC[C@](CC)(N(C)C)CC4)c3c21` [Compound I-124, (R)-1-((R)-4-(((1r,4R)-4-(dimethylamino)-4-ethylcyclohexyl)oxy)-6,7-dihydro-5H-cyclopenta[4,5]thieno[2,3-d]pyrimidin-5-yl)but-3-en-2-ol], the pIC50 was 4.70 to 5.30. In the case of `CN(C)[C@H]1CC[C@H](Oc2ncnc3sc4c(c23)CN(S(N)(=O)=O)CC4)CC1` [Compound I-238, 3-[[4-(dimethylamino)cyclohexyl]oxy]-8-thia-4,6, 12-triazatricyclo[7.4.0.0[2,7]]trideca-1(9),2(7),3,5-tetraene-12-sulfonamide], the pIC50 was > 5.30.

By pIC50 is commonly meant the IC50 on a negative log10 scale, so that one unit is a factor of ten. A low value points to a high IC50.
